Measured values from publication PMC10150354, “Linearization of the Brevicidine and Laterocidine Lipopeptides Yields Analogues That Retain Full Antibacterial Activity” (Journal of Medicinal Chemistry, 2023).
In brackets after ≈: the same amount, converted by molar mass. *1 amine or outer side, *2 acyl side, *3 side chain or, on linkers, in order; H or OH if unused. Where a SMILES comes first, the peptide text is derived from it. [ ]: non-standard residue; d: D form. The star is where a group is joined. ξ: configuration not given here. X1 = C[C@@H](N=[N+]=[N-])[C@H](N[*:1])C(=O)[*:2]; Octanoyl(7-Me) = CC(C)CCCCCC(=O)*; Hexanoyl(4ξ-Me) = CCC(C)CCC(=O)*; dOrn = NCCC[C@@H](N)C(=O)O; Orn = NCCC[C@H](N)C(=O)O

What was measured:
P. aeruginosa PAO1 = assay type: cell-based, Pseudomonas aeruginosa; details: microbroth dilution per CLSI, MHB, 18 h at 37 °C, visual inspection, three technical replicates
Outline: (§1)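 CLSI broth microdilution in MHB, polypropylene plates; log-phase bacteria (OD600 ~0.5, grown in TSB, with kanamycin for the E. coli ATCC 25922 MCR-1 strain) added at 2 × 10^5 CFU/mL. Read visually after 18 h at 37 °C with shaking; MIC = lowest concentration preventing visible growth, three technical replicates.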

[1] = system: panel of Gram-negative and Gram-positive ESKAPE pathogens; assay type: cell-based
Description: Linear laterocidine (LL-OH, 4) and linear brevicidine (LB-OH, 5) were first synthesized by Fmoc SPPS, starting from 2-chlorotrityl (2-CT) chloride resin. The antibacterial activity of these peptides was then compared to brevicidine (1) and laterocidine (2) using minimum inhibitory concentration (MIC)/microbroth dilution assays (Table 1). The MICs of all peptides were determined against a panel of Gram-negative and Gram-positive ESKAPE pathogens. Additionally, a strain of E. coli carrying the mcr-1 gene was included in the panel. The mcr-1 gene is a transferrable plasmid that confers resistance against colistin, a last-resort antibiotic for Gram-negative infections, by reducing the overall negative charge of lipopolysaccharide (LPS) through modification of lipid A with phosphoethanolamine. The propensity for cationic antibiotics to bind to the cell membrane is therefore reduced. This gene has been observed in more than 27 bacterial species over six continents.[26] The spread of the mcr-1 gene could render colistin ineffectual; therefore, novel antibacterials are urgently required to overcome this form of resistance.
All minimum inhibitory concentrations (MICs) were determined according to Clinical and Laboratory Standards Institute (CLSI) guidelines. Blood agar plates were inoculated with glycerol stocks of E. coli ATCC 25922, K. pneumoniae ATCC 13883, A. baumannii ATCC 17961, P. aeruginosa PAO1, and S. aureus USA300. The inoculated agar plates were then incubated for 16 h at 37 °C. Individually grown colonies were subsequently used to inoculate 5 mL aliquots of TSB that were then incubated at 37 °C with shaking at 220 rpm. E. coli 25922 MCR-1 glycerol stock was used to inoculate 5 mL of TSB supplemented with kanamycin that was then incubated for 16 h at 37 °C with shaking at 220 rpm. The next day the culture was diluted 100-fold in TSB supplemented with kanamycin and incubated at 37 °C with shaking at 220 rpm. In parallel, the lipopeptide antibiotics DMSO stocks to be assessed were serially diluted with MHB in polypropylene 96-well plates (50 μL in each well). Colistin sulfate stocks were dissolved in water before being diluted with MHB. Aliquots of the inoculated TSB were incubated until an OD600 of around 0.5 was reached. The bacterial suspensions were then diluted with MHB (2 × 10^5 CFU/mL) and added to the microplates containing the test compounds (50 μL to each well). The well plates were sealed with an adhesive membrane and after 18 h of incubation at 37 °C with shaking at 600 rpm, the wells were visually inspected for bacterial growth. MIC values reported are based on three technical replicates and defined as the lowest concentration of the compound that prevented visible growth of bacteria.

S. aureus USA300 = assay type: cell-based, Staphylococcus aureus; details: microbroth dilution per CLSI, MHB, 18 h at 37 °C, visual inspection, three technical replicates
Outline: as §1

K. pneumoniae ATCC 13883 = assay type: cell-based, Klebsiella pneumoniae; details: microbroth dilution per CLSI, MHB, 18 h at 37 °C, visual inspection, three technical replicates
Outline: as §1

E. coli (MCR-1) = assay type: cell-based, Escherichia coli; details: microbroth dilution per CLSI, MHB, 18 h at 37 °C, visual inspection, three technical replicates, E. coli 25922 carrying mcr-1
Outline: as §1

E. coli ATCC 25922 = assay type: cell-based, Escherichia coli; details: for Antibacterial activity (MIC) E. coli ATCC 25922: microbroth dilution per CLSI, MHB, 18 h at 37 °C, visual inspection, three technical replicates; for MIC (µg/mL) against E. coli (ATCC 25922): (Supplement 2)
Outline: as §1

A. baumannii ATCC 17961 = assay type: cell-based, Acinetobacter baumannii; details: microbroth dilution per CLSI, MHB, 18 h at 37 °C, visual inspection, three technical replicates
Outline: as §1

Structure (SMILES)	Antibacterial activity (MIC) P. aeruginosa PAO1 (P. aeruginosa PAO1) [µg/mL]	fold improvement in activity with respect to C-terminal acids 4 and 5 ([1]; MIC of C-terminal amide vs C-terminal acid) [fold]	fold reduction in activity compared to parent peptides ([1]; MIC vs brevicidine / laterocidine)	Antibacterial activity (MIC) S. aureus USA300 (S. aureus USA300) [µg/mL]	Antibacterial activity (MIC) K. pneumoniae ATCC 13883 (K. pneumoniae ATCC 13883) [µg/mL]	Antibacterial activity (MIC) E. coli (MCR-1) (E. coli (MCR-1)) [µg/mL]	Antibacterial activity (MIC) E. coli ATCC 25922 (E. coli ATCC 25922) [µg/mL]	Antibacterial activity (MIC) A. baumannii ATCC 17961 (A. baumannii ATCC 17961) [µg/mL]	MIC (µg/mL) against E. coli (ATCC 25922) (E. coli ATCC 25922) [µg/mL]
CCC(C)CCC(=O)N[C@H](CC(N)=O)C(=O)N[C@H](Cc1ccc(O)cc1)C(=O)N[C@H](Cc1c[nH]c2ccccc12)C(=O)N[C@H](CCCN)C(=O)N[C@@H](CCCN)C(=O)NCC(=O)N[C@H](CCCN)C(=O)N[C@@H](Cc1c[nH]c2ccccc12)C(=O)N[C@H](C(=O)N[C@H](C(=O)NCC(=O)N[C@@H](CO)C(N)=O)[C@@H](C)CC)[C@@H](C)O (stereo partly drawn) [LB-NH2 (7)] ({Hexanoyl(4ξ-Me)}-[dN][dY][dW][dOrn][Orn]G[dOrn]WTIGS-NH2)	4	2	2/4	>32	16	16	16	16	–
CCC(C)CCC(=O)N[C@H](CC(N)=O)C(=O)N[C@H](Cc1ccc(O)cc1)C(=O)N[C@H](Cc1c[nH]c2ccccc12)C(=O)N[C@H](CCCN)C(=O)N[C@@H](CCCN)C(=O)NCC(=O)N[C@H](CCCN)C(=O)N[C@@H](Cc1c[nH]c2ccccc12)C(=O)N[C@@H](CC(C)C)C(=O)N[C@H](C(=O)NCC(N)=O)[C@@H](C)CC (stereo partly drawn) [Δ12LB (Leu9)-NH2 (53)] ({Hexanoyl(4ξ-Me)}-[dN][dY][dW][dOrn][Orn]G[dOrn]WLIG-NH2)	8	–	–	>32	4	4	4	4	8 (≈ 5.47 µM)
CCC(C)CCC(=O)N[C@H](CC(N)=O)C(=O)N[C@H](Cc1ccc(O)cc1)C(=O)N[C@H](Cc1c[nH]c2ccccc12)C(=O)N[C@H](CCCN)C(=O)N[C@@H](CCCN)C(=O)NCC(=O)N[C@H](CCCN)C(=O)N[C@@H](Cc1c[nH]c2ccccc12)C(=O)N[C@H](C(=O)N[C@H](C(=O)NCC(N)=O)[C@@H](C)CC)[C@@H](C)N=[N+]=[N-] (stereo partly drawn) [Δ12LB (MeAbu9)-NH2 (60)] ({Hexanoyl(4ξ-Me)}-[dN][dY][dW][dOrn][Orn]G[dOrn]W[X1]IG-NH2)	4	–	–	>32	2	4	4	2	8 (≈ 5.42 µM)
CCC(C)CCC(=O)N[C@H](CC(N)=O)C(=O)N[C@H](Cc1ccc(O)cc1)C(=O)N[C@H](Cc1c[nH]c2ccccc12)C(=O)N[C@H](CCCN)C(=O)N[C@@H](CCCN)C(=O)NCC(=O)N[C@H](CCCN)C(=O)N[C@@H](Cc1c[nH]c2ccccc12)C(=O)N[C@@H](CCSC)C(=O)N[C@H](C(=O)NCC(N)=O)[C@@H](C)CC (stereo partly drawn) [Δ12LB (Met9)-NH2 (55)] ({Hexanoyl(4ξ-Me)}-[dN][dY][dW][dOrn][Orn]G[dOrn]WMIG-NH2)	4	–	–	>32	4	4	4	4	2 (≈ 1.35 µM)
CCC(C)CCC(=O)N[C@H](CC(N)=O)C(=O)N[C@H](Cc1ccc(O)cc1)C(=O)N[C@H](Cc1c[nH]c2ccccc12)C(=O)N[C@H](CCCN)C(=O)N[C@@H](CCCN)C(=O)NCC(=O)N[C@H](CCCN)C(=O)N[C@@H](Cc1c[nH]c2ccccc12)C(=O)N[C@@H](Cc1c[nH]c2ccccc12)C(=O)N[C@H](C(=O)NCC(N)=O)[C@@H](C)CC (stereo partly drawn) [Δ12LB (Trp9)-NH2 (56)] ({Hexanoyl(4ξ-Me)}-[dN][dY][dW][dOrn][Orn]G[dOrn]WWIG-NH2)	8	–	–	16	8	4	4	4	4 (≈ 2.61 µM)
CCC(C)CCC(=O)N[C@H](CC(N)=O)C(=O)N[C@H](Cc1ccc(O)cc1)C(=O)N[C@H](Cc1c[nH]c2ccccc12)C(=O)N[C@H](CCCN)C(=O)N[C@@H](CCCN)C(=O)NCC(=O)N[C@H](CCCN)C(=O)N[C@@H](Cc1c[nH]c2ccccc12)C(=O)N[C@H](C(=O)N[C@H](C(=O)NCC(N)=O)[C@@H](C)CC)[C@@H](C)O (stereo partly drawn) [Δ12LB-NH2 (9)] ({Hexanoyl(4ξ-Me)}-[dN][dY][dW][dOrn][Orn]G[dOrn]WTIG-NH2)	4	–	–	>32	8	16	8	8	–
CC[C@H](C)[C@H](NC(=O)[C@@H](NC(=O)[C@H](Cc1c[nH]c2ccccc12)NC(=O)[C@@H](CCCN)NC(=O)CNC(=O)[C@H](CCCN)NC(=O)[C@@H](CCCN)NC(=O)[C@@H](Cc1c[nH]c2ccccc12)NC(=O)[C@@H](Cc1ccc(O)cc1)NC(=O)[C@@H](CO)NC(=O)CCCCCC(C)C)[C@@H](C)O)C(=O)N[C@@H](CC(N)=O)C(N)=O [Δ12–13LL-NH2 (10)] ({Octanoyl(7-Me)}-[dS][dY][dW][dOrn][Orn]G[dOrn]WTIN-NH2)	4	–	–	>32	8 to 16	8	4	4	–
CC[C@H](C)[C@H](NC(=O)[C@@H](NC(=O)[C@H](Cc1c[nH]c2ccccc12)NC(=O)[C@@H](CCCN)NC(=O)CNC(=O)[C@H](CCCN)NC(=O)[C@@H](CCCN)NC(=O)[C@@H](Cc1c[nH]c2ccccc12)NC(=O)[C@@H](Cc1ccc(O)cc1)NC(=O)[C@@H](CO)NC(=O)CCCCCC(C)C)[C@@H](C)O)C(=O)N[C@@H](CC(N)=O)C(=O)NCC(N)=O [Δ13LL-NH2 (8)] ({Octanoyl(7-Me)}-[dS][dY][dW][dOrn][Orn]G[dOrn]WTING-NH2)	4	–	–	>32	4 to 8	8	8	4	–
